Molecules are shown by their SMILES. Where only a bound is given, the exact number is not on record here.

From patent publication US8394848B2, “Compounds that modulate intracellular calcium” (Calcimedica, Inc., priority 2008, dated 2013) come the findings set out here.

In the test the test system is JR251 or RBL cells. The test is described as follows: Store-operated calcium entry, either JR251 or RBL cells, or both. In kind it is cell-based. Put shortly: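 FLIPR calcium-entry readout in fluo-4-loaded cells held in Ca2+-free HBSS before calcium add-back. For RBL-2H3, store depletion used thapsigargin for 25 min after a 5 min compound pre-incubation, and IC50 was based on the 7 s Upslope. For Orai1/STIM1 stable cells, compound was pre-incubated 30 min and IC50 was based on Peak-Basal.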
`N#CC(Cc1ccccc1Cl)C(=O)Nc1scc(-c2ccc(Cl)cc2)c1C(=O)O` (centres unmarked) [4-(4-chlorophenyl)-2-(3-(2-chlorophenyl)-2-cyanopropanamido)thiophene-3-carboxylic acid]: the concentration for half-maximal inhibition (IC50) (commonly the midpoint of a concentration-inhibition curve) was < 10 µM.

As for `O=C(O)c1c(-c2ccc(Cl)cc2)csc1NC(=O)C(F)Cc1ccccc1Cl` (centres unmarked) [4-(4-chlorophenyl)-2-(3-(2-chlorophenyl)-2-fluoropropanamido)thiophene-3-carboxylic acid], the IC50 was < 10 µM.

Consider `O=C(CCc1ccccc1Cl)Nc1scc(-c2ccc(Cl)cc2)c1C(=O)O` [4-(4-chlorophenyl)-2-(3-(2-chlorophenyl)propanamido)thiophene-3-carboxylic acid], for which the IC50 was < 10 µM.

Regarding `N#Cc1ccccc1CCC(=O)Nc1scc(-c2ccc(Cl)cc2)c1C(=O)O` [4-(4-chlorophenyl)-2-(3-(2-cyanophenyl)propanamido)thiophene-3-carboxylic acid], the half-maximal inhibitory concentration (IC50) was < 10 µM.

As for `O=C(NCc1ccccc1F)Nc1scc(-c2ccc(Cl)cc2)c1C(=O)O` [4-(4-chlorophenyl)-2-(3-(2-fluorobenzyl)ureido)thiophene-3-carboxylic acid], the half-inhibitory concentration (IC50) was < 10 µM.

Consider `O=C(CCc1ccccc1F)Nc1scc(-c2ccc(Cl)cc2)c1C(=O)O` [4-(4-chlorophenyl)-2-(3-(2-fluorophenyl)propanamido)thiophene-3-carboxylic acid], for which the IC50 was < 10 µM.

`O=C(CCc1ccc(F)c(F)c1)Nc1scc(-c2ccc(Cl)cc2)c1C(=O)O` [4-(4-chlorophenyl)-2-(3-(3,4-difluorophenyl)propanamido)thiophene-3-carboxylic acid]: the IC50 is < 10 µM.

Turning to `O=C(CCc1cccc(Cl)c1)Nc1scc(-c2ccc(Cl)cc2)c1C(=O)O` [4-(4-chlorophenyl)-2-(3-(3-chlorophenyl)propanamido)thiophene-3-carboxylic acid], the IC50 is < 10 µM.

In the case of `O=C(CCc1cccc(F)c1)Nc1scc(-c2ccc(Cl)cc2)c1C(=O)O` [4-(4-chlorophenyl)-2-(3-(3-fluorophenyl)propanamido)thiophene-3-carboxylic acid], the IC50 was < 10 µM.

For the compound `O=C(CCc1ccc(Cl)cc1)Nc1scc(-c2ccc(Cl)cc2)c1C(=O)O` [4-(4-chlorophenyl)-2-(3-(4-chlorophenyl)propanamido)thiophene-3-carboxylic acid], the IC50 is < 10 µM.

Consider `O=C(CCc1ccc(F)cc1)Nc1scc(-c2ccc(Cl)cc2)c1C(=O)O` [4-(4-chlorophenyl)-2-(3-(4-fluorophenyl)propanamido)thiophene-3-carboxylic acid], for which the IC50 is < 10 µM.

With `O=C(NCC1CCCCC1)Nc1scc(-c2ccc(Cl)cc2)c1C(=O)O` [4-(4-chlorophenyl)-2-(3-(cyclohexylmethyl)ureido)thiophene-3-carboxylic acid], the IC50 was < 10 µM.

On to `O=C(CCc1ccco1)Nc1scc(-c2ccc(Cl)cc2)c1C(=O)O` [4-(4-chlorophenyl)-2-(3-(furan-2-yl)propanamido)thiophene-3-carboxylic acid], for which the IC50 is < 10 µM.

`O=C(CCc1cccs1)Nc1scc(-c2ccc(Cl)cc2)c1C(=O)O` [4-(4-chlorophenyl)-2-(3-(thiophen-2-yl)propanamido)thiophene-3-carboxylic acid]: the IC50 was < 10 µM.

`Cc1cccc2nc(C(=O)Nc3scc(-c4ccc(Cl)cc4)c3C(=O)O)c(F)n12` [4-(4-chlorophenyl)-2-(3-fluoro-5-methylimidazo[1,2-a]pyridine-2-carboxamido)thiophene-3-carboxylic acid]: the IC50 was < 10 µM.

In the case of `CC(C)(CC(=O)Nc1scc(-c2ccc(Cl)cc2)c1C(=O)O)c1ccccc1` [4-(4-chlorophenyl)-2-(3-methyl-3-phenylbutanamido)thiophene-3-carboxylic acid], the IC50 was < 10 µM.

Take `Cc1ccsc1C(=O)Nc1scc(-c2ccc(Cl)cc2)c1C(=O)O` [4-(4-chlorophenyl)-2-(3-methylthiophene-2-carboxamido)thiophene-3-carboxylic acid]: the concentration for half-maximal inhibition (IC50) is < 10 µM.

Regarding `O=C(NCCc1ccccc1)Nc1scc(-c2ccc(Cl)cc2)c1C(=O)O` [4-(4-chlorophenyl)-2-(3-phenethylureido)thiophene-3-carboxylic acid], the IC50 is < 10 µM.

Turning to `O=C(Nc1scc(-c2ccc(Cl)cc2)c1C(=O)O)c1c[nH]nc1-c1ccccc1` [4-(4-chlorophenyl)-2-(3-phenyl-1H-pyrazole-4-carboxamido)thiophene-3-carboxylic acid], the IC50 was < 10 µM.

Regarding `O=C(O)c1c(-c2ccc(Cl)cc2)csc1NC(=O)C(Cc1ccccc1)n1cnnn1` (centres unmarked) [4-(4-chlorophenyl)-2-(3-phenyl-2-(1H-tetrazol-1-yl)propanamido)thiophene-3-carboxylic acid], the IC50 is < 10 µM.

For `CC(CC(=O)Nc1scc(-c2ccc(Cl)cc2)c1C(=O)O)c1ccccc1` (centres unmarked) [4-(4-chlorophenyl)-2-(3-phenylbutanamido)thiophene-3-carboxylic acid], the IC50 was < 10 µM.

Turning to `O=C(CCc1ccccc1)Nc1scc(-c2ccc(Cl)cc2)c1C(=O)O` [4-(4-chlorophenyl)-2-(3-phenylpropanamido)thiophene-3-carboxylic acid], the IC50 is < 10 µM.

On to `O=C(C#Cc1ccccc1)Nc1scc(-c2ccc(Cl)cc2)c1C(=O)O` [4-(4-chlorophenyl)-2-(3-phenylpropiolamido)thiophene-3-carboxylic acid], for which the IC50 is < 10 µM.

In the case of `O=C(Nc1scc(-c2ccc(Cl)cc2)c1C(=O)O)c1cc2c(Cl)cc(Cl)cc2[nH]1` [4-(4-chlorophenyl)-2-(4,6-dichloro-1H-indole-2-carboxamido)thiophene-3-carboxylic acid], the half-inhibitory concentration (IC50) is < 10 µM.

`O=C(Nc1scc(-c2ccc(Cl)cc2)c1C(=O)O)c1nc2c(F)cc(F)cc2o1` [4-(4-chlorophenyl)-2-(4,6-difluorobenzo[d]oxazole-2-carboxamido)thiophene-3-carboxylic acid]: the IC50 is < 10 µM.

In the case of `O=C(Nc1scc(-c2ccc(Cl)cc2)c1C(=O)O)c1cc2c(Cl)cccn2n1` [4-(4-chlorophenyl)-2-(4-chloropyrazolo[1,5-a]pyridine-2-carboxamido)thiophene-3-carboxylic acid], the IC50 is < 10 µM.

Regarding `O=C(Nc1scc(-c2ccc(Cl)cc2)c1C(=O)O)c1nc(C2CC2)cs1` [4-(4-chlorophenyl)-2-(4-cyclopropylthiazole-2-carboxamido)thiophene-3-carboxylic acid], the IC50 was < 10 µM.

Consider `O=C(O)c1c(-c2ccc(Cl)cc2)csc1NC(=O)C1Cc2c(F)cccc2S1` (centres unmarked) [4-(4-chlorophenyl)-2-(4-fluoro-2,3-dihydrobenzo[b]thiophene-2-carboxamido)thiophene-3-carboxylic acid], for which the IC50 is < 10 µM.

As for `O=C(Nc1scc(-c2ccc(Cl)cc2)c1C(=O)O)c1nc2c(F)cccc2o1` [4-(4-chlorophenyl)-2-(4-fluorobenzo[d]oxazole-2-carboxamido)thiophene-3-carboxylic acid], the IC50 is < 10 µM.

With `O=C(Nc1scc(-c2ccc(Cl)cc2)c1C(=O)O)c1nc2c(F)cccc2s1` [4-(4-chlorophenyl)-2-(4-fluorobenzo[d]thiazole-2-carboxamido)thiophene-3-carboxylic acid], the IC50 is < 10 µM.

As to `O=C(Nc1scc(-c2ccc(Cl)cc2)c1C(=O)O)c1cc2c(F)cccn2n1` [4-(4-chlorophenyl)-2-(4-fluoropyrazolo[1,5-a]pyridine-2-carboxamido)thiophene-3-carboxylic acid], the concentration for half-maximal inhibition (IC50) is < 10 µM.

Consider `O=C(Nc1scc(-c2ccc(Cl)cc2)c1C(=O)O)c1nc2c(O)cccc2o1` [4-(4-chlorophenyl)-2-(4-hydroxybenzo[d]oxazole-2-carboxamido)thiophene-3-carboxylic acid], for which the IC50 was < 10 µM.

In the case of `Cc1nnsc1C(=O)Nc1scc(-c2ccc(Cl)cc2)c1C(=O)O` [4-(4-chlorophenyl)-2-(4-methyl-1,2,3-thiadiazole-5-carboxamido)thiophene-3-carboxylic acid], the IC50 is < 10 µM.

For `Cc1cccc2oc(C(=O)Nc3scc(-c4ccc(Cl)cc4)c3C(=O)O)nc12` [4-(4-chlorophenyl)-2-(4-methylbenzo[d]oxazole-2-carboxamido)thiophene-3-carboxylic acid], the IC50 is < 10 µM.

For `O=C(Nc1scc(-c2ccc(Cl)cc2)c1C(=O)O)c1nc2c([N+](=O)[O-])cccc2s1` [4-(4-chlorophenyl)-2-(4-nitrobenzo[d]thiazole-2-carboxamido)thiophene-3-carboxylic acid], the IC50 was < 10 µM.

On to `O=C1CC(C(=O)Nc2scc(-c3ccc(Cl)cc3)c2C(=O)O)Cc2ccccc21` (centres unmarked) [4-(4-chlorophenyl)-2-(4-oxo-1,2,3,4-tetrahydronaphthalene-2-carboxamido)thiophene-3-carboxylic acid], for which the IC50 is < 10 µM.

Consider `O=C(CCCc1ccccc1)Nc1scc(-c2ccc(Cl)cc2)c1C(=O)O` [4-(4-chlorophenyl)-2-(4-phenylbutanamido)thiophene-3-carboxylic acid], for which the IC50 is < 10 µM.

Turning to `O=C(Nc1scc(-c2ccc(Cl)cc2)c1C(=O)O)c1nccc(-c2ccccc2)n1` [4-(4-chlorophenyl)-2-(4-phenylpyrimidine-2-carboxamido)thiophene-3-carboxylic acid], the IC50 was < 10 µM.

Take `O=C(Nc1scc(-c2ccc(Cl)cc2)c1C(=O)O)c1cc2occc2[nH]1` [4-(4-chlorophenyl)-2-(4H-furo[3,2-b]pyrrole-5-carboxamido)thiophene-3-carboxylic acid]: the 50% inhibitory concentration (IC50) was < 10 µM.

For `O=C(Nc1scc(-c2ccc(Cl)cc2)c1C(=O)O)c1cc2sccc2[nH]1` [4-(4-chlorophenyl)-2-(4H-thieno[3,2-b]pyrrole-5-carboxamido)thiophene-3-carboxylic acid], the IC50 is < 10 µM.

For the compound `O=C(Nc1scc(-c2ccc(Cl)cc2)c1C(=O)O)c1ccc(-c2ccc(Cl)cc2)o1` [4-(4-chlorophenyl)-2-(5-(4-chlorophenyl)furan-2-carboxamido)thiophene-3-carboxylic acid], the IC50 was < 10 µM.
